As a reminder, the melting point is the temperature of the solid-liquid transition.

`CCCCC(C(=O)N[C@H]1CN2CCC1CC2)c1ccccc1` (stereo partly shown): the melting point is 136 °C.

`C[N+]12CCC(CC1)C(NC(=O)C1(O)c3ccccc3-c3ccccc31)C2.[Br-]` (stereo not shown): the melting point was 197.5 to 203.6 °C.

`O=C(N[C@H]1CN2CCC1CC2)C(O)(c1ccccc1)C1CCCC1` (stereo partly shown): the melting point was in the range of 69.8 to 73.3 °C.

In turn, `C=CCC(O)(C(=O)N[C@H]1CN2CCC1CC2)c1cccs1` (stereo partly shown) returned a melting point of 54.4 to 58.3 °C.

Take `C[N+]12CCC(CC1)C(NC(=O)C1c3ccccc3Oc3ccccc31)C2.[Br-]` (stereo not shown): the melting point was found to be 318 °C.

In turn, `O=C(N[C@H]1CN2CCC1CC2)C(Cc1ccccc1)c1ccccc1` (stereo partly shown) showed a melting point of 142 °C.

For the compound `O=C(NC1C[N+]2(CCCOc3ccccc3)CCC1CC2)C1(O)c2ccccc2-c2ccccc21.[Br-]` (stereo not shown), the melting point came to 264 °C.

These data come from patent US7718670B2 (dated 2010).
